Reference: US5962314A, “Calcium receptor-active molecules” (priority 1997, dated 1999)
Entries after “also recorded” stand apart in the source; their conditions may differ. Like-named read-outs stand apart in the source and are kept apart here.

Tests used:
[1] = tested on: osteoclast calcium receptor; assay: [Ca2+]i in indo-1-loaded rat osteoclasts; assay type: cell-based
cyclic AMP = assay type: cell-based, bovine
Method: Cells were incubated as above for PTH secretion studies and at the end of the incubation, a 0.15-ml sample was taken and transferred to 0.85 ml of hot (70° C.) water and heated at this temperature for 5-10 minutes. The tubes were subsequently frozen and thawed several times and the cellular debris sedimented by centrifugation. Portions of the supernatant were acetylated and cyclic AMP concentrations determined by radioimmunoassay.
Each value is the mean±SEM of three experiments.

calcium receptor = target: T1, calcium receptor (Homo sapiens, UniProt P41180); assay: Xenopus oocytes injected with human parathyroid cell mRNA; assay type: cell-based; conditions: for effect on Cl- current: oocytes injected with human parathyroid mRNA; for effect in water-injected oocytes: neomycin B 10 mM
T1 sequence (P41180 20-1078): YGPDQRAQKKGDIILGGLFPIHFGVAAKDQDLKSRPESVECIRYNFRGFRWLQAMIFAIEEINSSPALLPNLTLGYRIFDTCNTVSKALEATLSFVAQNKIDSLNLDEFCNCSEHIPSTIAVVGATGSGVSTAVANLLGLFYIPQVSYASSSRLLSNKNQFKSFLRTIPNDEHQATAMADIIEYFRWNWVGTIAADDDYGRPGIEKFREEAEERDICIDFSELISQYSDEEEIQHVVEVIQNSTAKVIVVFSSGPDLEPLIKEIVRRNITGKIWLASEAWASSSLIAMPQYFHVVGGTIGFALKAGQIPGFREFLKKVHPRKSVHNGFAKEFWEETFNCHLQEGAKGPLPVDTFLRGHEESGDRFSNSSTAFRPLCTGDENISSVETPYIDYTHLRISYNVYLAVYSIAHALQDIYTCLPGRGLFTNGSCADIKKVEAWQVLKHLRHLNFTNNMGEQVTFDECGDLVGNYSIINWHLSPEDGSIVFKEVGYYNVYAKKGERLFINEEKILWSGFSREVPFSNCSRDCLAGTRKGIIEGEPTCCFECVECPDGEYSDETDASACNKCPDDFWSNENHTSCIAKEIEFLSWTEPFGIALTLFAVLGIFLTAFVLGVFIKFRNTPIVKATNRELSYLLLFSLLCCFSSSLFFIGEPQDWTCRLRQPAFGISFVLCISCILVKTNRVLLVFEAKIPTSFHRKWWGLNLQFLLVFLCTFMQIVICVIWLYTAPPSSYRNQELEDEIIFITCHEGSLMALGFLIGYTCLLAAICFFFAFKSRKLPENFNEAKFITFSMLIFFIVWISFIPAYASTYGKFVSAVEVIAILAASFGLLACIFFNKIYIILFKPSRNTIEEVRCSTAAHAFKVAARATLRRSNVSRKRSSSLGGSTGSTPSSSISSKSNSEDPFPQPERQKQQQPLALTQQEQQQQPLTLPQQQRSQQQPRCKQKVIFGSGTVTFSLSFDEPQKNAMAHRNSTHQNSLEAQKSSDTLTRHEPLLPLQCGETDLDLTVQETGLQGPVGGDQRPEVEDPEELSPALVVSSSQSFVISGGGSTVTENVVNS
Method: Oocytes were injected with poly(A)^+ -enriched mRNA from human parathyroid tissue (hyperplastic glands from a case of secondary HPT).
Following incubation, an oocyte was placed into a 100-μl plastic chamber and superfused with MBS at a flow rate of 0.5 ml/min using a peristaltic pump. Test molecules or inorganic polycations were added by rapidly moving the tubing into different buffers. Recording and current-passing electrodes were constructed from thin-wall capillary tubing pulled to a resistance of 1-3 Mohms and filled with 3 M KCl. […] Currents were recorded directly onto a strip chart recorder.
Using this screen allows one to test for an action directly on the calcium receptor. Oocytes expressing the calcium receptor also responded to several molecules active on intact parathyroid cells when screened as follows. […] This offers rather compelling evidence showing that these molecules act on the calcium receptor or on some other protein intimately associated with its function.

[2] = target: T2, parathyroid cell calcium receptor (Homo sapiens, UniProt P41180); assay: mobilization of intracellular Ca2+ in human parathyroid cells; assay type: cell-based; conditions: neomycin B 10 or 20 μM, spermine 300 μM, Mg2+ 10 mM
T2 construct: Dissociated parathyroid cells were prepared from a parathyroid adenoma obtained by surgery from a patient with primary hyperparathyroidism; endogenous in cells; host or cells: human parathyroid cells (adenoma or hyperplastic glands from patients)
T2 sequence (P41180 20-1078): T1 sequence (P41180 20-1078)
Method: Human parathyroid glands, were obtained from patients undergoing surgical removal of parathyroid tissue for primary or uremic hyperparathyroidism (uremic HPT), and were treated similarly to bovine tissue.
The cells were then pelleted, resuspended in the same buffer, but lacking the ester, and incubated a further 15 minutes at 37° C. The cells were subsequently washed twice with PCB containing 0.5 mM CaCl2 and 0.5% BSA and maintained at room temperature (about 20° C.). Immediately before use, the cells were diluted five-fold with prewarmed 0.5 mM CaCl2 -PCB to obtain a final BSA concentration of 0.1%. The concentration of cells in the cuvette used for fluorescence recording was 1-2×10^6 /ml.

PTH = PTH levels in rats; assay type: in vivo, rat; conditions: NPS R-568 oral, rats
Excerpt: The fall in blood Ca^2+ at this time was paralleled by a proportional fall in the levels of blood total calcium.

serum calcitonin = serum calcitonin in a human; assay type: in vivo; conditions: single oral doses studied
Excerpt: (§1) A range of single oral doses was used to assess safety, tolerance, and changes in primary hyperparathyroidism markers (e.g., plasma concentrations of parathyroid hormone and ionized serum calcium) and of serum calcitonin.

serum ionized calcium [3] = assay: serum ionized Ca2+ in rats; assay type: in vivo, rat; conditions: NPS R-568 oral
Method: Compounds shown to activate the bovine parathyroid cell calcium receptor in vitro were tested for hypocalcemic activity in vivo. Male Sprague-Dawley rats (200 g) were maintained on a low calcium diet for one week prior to receiving test substance or vehicle as control. Blood was collected from the tail vein three hours after the intra-peritoneal administration of NPS 467. […] Serum total calcium, albumin and phosphate were measured by techniques well known in the art.
Rats (male, Sprague-Dawley, 250-300 g) were fed standard rat chow and fasted overnight prior to the experiment. NPS R-467 was suspended in corn oil and administered as a single oral dose through a gavage needle. Three hours later a sample of blood was taken from the tail vein and assessed for ionized Ca^2+ levels.

serum ionized calcium [4] = assay: serum ionized calcium in a human; assay type: in vivo; conditions: higher single oral doses
Excerpt: as §1

serum ionized calcium [5] = assay: serum ionized Ca2+ in parathyroidectomized rats; assay type: in vivo, rat; conditions: NPS R-467 10 mg/kg i.p., 6 hours; NPS R-568 oral
Excerpt: To determine the primary target tissue upon which NPS R-467 acts to cause a hypocalcemic response, the parathyroid glands in rats were surgically removed. Animals receiving a total parathyroidectomy become hypocalcemic and are largely dependent upon dietary calcium to maintain serum Ca^2+ homeostasis.

[6] = tested on: serum parathyroid hormone; assay: serum PTH in a human; assay type: in vivo; conditions: single oral doses
Excerpt: as §1

| Structure (SMILES) | effect on [Ca2+]i in osteoclasts [1] | effect on response to extracellular Ca2+ in osteoclasts [1] | effect on [Ca2+]i in osteoclasts ([1]; listed as neomycin) | effect on [Ca2+]i in osteoclasts ([1]; listed as neomycin B) | effect on isoproterenol-induced increases in cyclic AMP (cyclic AMP) | mobilization of intracellular Ca2+ in oocytes (calcium receptor; hexacyclen 135 μM, neomycin 100 μM, NPS 382 5 mM) | effect on Cl- current (calcium receptor; listed as Neomycin B) | effect on Cl- current (calcium receptor; listed as neomycin B) | effect in water-injected oocytes (calcium receptor; listed as Neomycin B) | effect in water-injected oocytes (calcium receptor; listed as neomycin B) | effect on [Ca2+]i in human parathyroid cells [2] | effect on [Ca2+]i in human parathyroid cells ([2]; listed as Neomycin B) | effect on [Ca2+]i in human parathyroid cells ([2]; listed as neomycin B) | effect on PTH, oral (PTH) | effect on serum calcitonin in human (serum calcitonin) | hypocalcemic response after complete nephrectomy (serum ionized calcium [3]; prior complete nephrectomy) | effect on serum Ca2+, oral (serum ionized calcium [3]; rats) | effect on serum ionized calcium in human (serum ionized calcium [4]) | effect on serum ionized Ca2+ in parathyroidectomized rats (serum ionized calcium [5]) | effect on plasma PTH in human [6] |
| --- | --- | --- | --- | --- | --- | --- | --- | --- | --- | --- | --- | --- | --- | --- | --- | --- | --- | --- | --- | --- |
| NC[C@@H]1O[C@H](O[C@H]2[C@@H](O)[C@H](O[C@@H]3[C@@H](O)[C@H](N)C[C@H](N)[C@H]3O[C@H]3O[C@H](CN)[C@@H](O)[C@H](O)[C@H]3N)O[C@@H]2CO)[C@H](N)[C@@H](O)[C@@H]1O [Neomycin] | failed to evoke any increase in [Ca^2+ ]i; also recorded: Neither neomycin (10 mM) nor spermine (10 or 20 mM) caused increases in [Ca^2+ ]i; also recorded: fail to affect the calcium receptors on C-cells or osteoclasts | did not block the increase in [Ca^2+ ]i | none of these caused any large increase in [Ca^2+ ]i | fail to evoke increases in [Ca^2+ ]i | depressed isoproterenol-induced increases in cyclic AMP | also effective | evoked oscillatory increases in the Cl^- | evokes oscillating increases in the Cl^- | failed to elicit a response in five water-injected oocytes | failed to cause any change in the current | large increase in [Ca^2+ ]i | not only a transient, but additionally a steady-state increase in [Ca^2+ ]i | transient and sustained increases in [Ca^2+ ]i | – | – | – | – | – | – | – |
| COc1cccc([C@@H](C)NCCCc2ccccc2Cl)c1 [NPS R-568, (R)-(+)-N-[3-(2-chlorophenyl)propyl]-α-methyl-3-methoxybenzylamine] | – | – | – | – | – | – | – | – | – | – | – | – | – | rapid, dose-dependent decrease in the plasma levels of PTH; also recorded: decreases in the levels of serum PTH | no apparent change in serum calcitonin | only marginally affected | dose-dependent decrease in the levels of serum Ca^2+ | decrease in serum ionized calcium concentration | fails to elicit a hypocalcemic response | transient dose-dependent decrease in plasma PTH concentration |
